“Also recorded” adds a separate entry of the source.
Tests used:
[1] = system: HepG2 cells infected with hepatitis C virus; assay: In vitro anti-HCV screening, qualitative RT-PCR of viral RNA; format: cell-based, HCV genotype-4; conditions: for in vitro anti-HCV activity, in words: HCV-infected HepG2 cells, RT-PCR; for Result (anti-HCV screening): at the used dose (below LD0 on HepG2 and PBMCs), 72 h, Positive = disappearance of viral RNA-amplified product (174 bp)
Excerpt: The safe compounds on RBCs (5a-g, 5i-l, 5p-r, 5v-w, 6b-g) were screened for their in vitro anti-HCV activity using the HCC HepG2 cell line infected with the HCV. Monitoring of the HCV viremia pre- and post-antiviral therapy through the detection of viral RNA using qualitative reverse transcription-PCR (RT-PCR) was adopted in the present investigation. This technique was reported to be the most frequently used, reliable and sensitive technique. Inhibition of viral replication was detected by amplification of viral RNA segments by the RT-PCR technique both in the cultivated infected cells alone (as a positive control) and at the specified dose for each test compound at optimal temperature. The test compound was considered to be active when it can inhibit the viral replication inside the HCV-infected HepG2 cells, as evidenced by the disappearance of the viral RNA-amplified products detected by the RT-PCR (compared with positive control).
The used concentration of each compound was chosen to be lower than the LD0 on HepG2 cells. Therefore, 100% viability of HepG2 cells was maintained, to make sure that any inhibitory effect was due to anti-HCV activity rather than cytotoxic activity on HepG2 cells. Moreover, the used concentrations were also chosen to be lower than the LD0 on PBMCs. Consequently, these doses could be used for inhibition of HCV in normal cells infected with the virus.
HepG2 cells were washed twice in RPMI-1640 medium supplemented with 200 μM L-glutamine and […] HEPES buffer. The cells were suspended at 12 × 10^4 cells/ml in RPMI culture medium (RPMI supplemented medium and 10% FBS). The appropriate number of cells to be used was chosen to be 12 × 10^3 cells/well (100 μl of the prepared suspension), and the cells were left to adhere on the polystyrene […] plates in an incubator at 37°C, 5% CO2 and 95% humidity for 24 h. The cells were washed once using RPMI supplemented medium, then infected with 2% HCV-infected serum (the used serum was a pole of ten patients infected with HCV genotype-4 with viral loads: 3.2–9 million IU/ml, G4 HCV RNA) in RPMI culture medium containing 8% FBS. The used dose of each compound was chosen so as to maintain 100% viability of the HepG2 cell line (the dose was lower than the LD0 of each compound on HepG2 cells as calculated from the in vitro anticancer screening). It was reported that, cultured HepG2 cells lost their biotransformation activity due to decrease in cytochrome (CYP) transcription. This waived its effect on the compounds stability during the test. Negative control is HepG2 cells with culture medium without addition of HCV infected serum or addition of tested compounds. Positive control is HepG2 cells with culture medium and infected HCV serum but without addition of tested compounds. After addition of the compounds, the plates were incubated at 37°C, 5% CO2 and 95% humidity for 72 h, followed by RNA extraction. The RNA strand was detected by RT-PCR using HCV-specific primers to the […] region of the virus.
RNA was extracted from HepG2 cells using the method described by El-Awady et al.. Culture cells were mixed with 200 μl of 4 mol/l guanidinium isothiocyanate (Fischer Bioreagents) containing 25 mmol/l sodium citrate (MP Biomedicals, CA, USA), 0.5% sarkosyl (Fischer Bioreagents), 0.1 mol/l β-mercaptoethanol (MP Biomedicals), and 100 μl sodium acetate (Merck). The lysed cells were mixed with an equal volume of phenol, chloroform and isoamyl alcohol (25:24:1, pH 4; Fischer Bioreagents). After vortexing, the mixture was centrifuged (14,000 r.p.m. for 10 min) at 4°C. The aqueous layer was collected and mixed with an equal volume of isopropanol (Acros Organics, Geel, Belgium). After incubation at -20°C overnight, RNA was precipitated by centrifugation (14,000 r.p.m. for 30 min) at 4°C, and the precipitated RNA was washed twice with 70% ethanol. […]

In vitro hemolytic assay = format: cell-based; conditions: 2% erythrocyte suspension (washed red blood cells); 2% erythrocyte suspension, 3 μl of 1 mg/ml compound in DMF per 240 μl well, 37°C 30 min, absorbance 405 nm; <5% considered nontoxic
Experimental: Compounds 5a-x and 6a-h were subjected to the in vitro hemolytic assay to identify those which cause hemolysis to red blood cells (RBCs). Consequently, these compounds would be toxic in vivo so they were excluded from further biological screening.
Blood samples (5 ml) were freshly collected into heparinized tubes and were centrifuged (1000 r.p.m. for 20 min) at room temperature. The plasma and buffy coat were removed by Pasteur pipette, and the collected erythrocytes were washed three-times using isotonic buffer solution (0.9% sodium chloride [Sigma-Aldrich, MO, USA]) by centrifugation (2500 r.p.m. for 10 min). A two percent erythrocyte suspension was prepared to be used in the assay.
A 1 mg/ml stock solution of each compound was prepared in DMF (Sigma-Aldrich). Compound wells were prepared by adding 3 μl of the compound solution to 117 μl isotonic buffer solution and 120 μl erythrocyte suspension. Compounds color blank wells were prepared by adding 3 μl compound to 237 μl isotonic buffer solution. Solvent (DMF) wells were prepared by adding 3 μl DMF to 117 μl isotonic buffer solution and 120 μl erythrocyte suspension. Positive control wells (representing 100% hemolysis) were prepared by adding 120 μl erythrocyte suspension to 120 μl distilled water, while negative control wells (representing 0% hemolysis) were prepared by adding 120 μl erythrocyte suspension to 120 μl isotonic buffer solution. Finally, blank wells contained only 240 μl isotonic buffer solution. Each set of samples was pipetted in triplicate. The microtiter plate was then shaken well on bench, incubated at 37°C for 30 min then centrifuged (2000 rpm for 5 min) at room temperature.
A fraction of the supernatant layer (150 μl) of each well was transferred to another 96-well microtiter plate. Erythrocyte hemolysis was determined by reading the absorbance (A) of liberated hemoglobin at 405 nm in the supernatant fraction compared with the 100% hemolysis of erythrocyte. The average value was calculated from triplicate assay: [drawing 2]

Row | SMILES | in vitro anti-HCV activity, in words [1] | Result (anti-HCV screening) [1] | hemolysis at 30 min, 12.5 µg/ml (In vitro hemolytic assay) [%]
1 | CC(=NN=C1SC(=Cc2cn(-c3ccccc3)nc2-c2ccccc2)C(=O)N1c1ccccc1)c1cc2ccccc2o1 [Compound 5a, 2-[1-(Benzofuran-2-yl)ethylidenehydrazono]-5-[(1,3-Diphenyl-1H-pyrazol-4-yl)methylene]-3-phenylthiazolidin-4-one] | showed in vitro anti-HCV activity; also recorded: exhibited in vitro anti-HCV activity | Positive | 3.27
2 | CC(=NN=C1SC(=Cc2cn(-c3ccccc3)nc2-c2ccc(Cl)cc2)C(=O)N1c1ccccc1)c1cc2ccccc2o1 [Compound 5b, 2-[1-(Benzofuran-2-yl)ethylidenehydrazono]-5-{[3-(4-chlorophenyl)-1-phenyl-1H-pyrazol-4-yl]methylene}-3-phenylthiazolidin-4-one] |  | Negative | 4.22
3 | COc1ccc(-c2nn(-c3ccccc3)cc2C=C2SC(=NN=C(C)c3cc4ccccc4o3)N(c3ccccc3)C2=O)cc1 [Compound 5c, 2-[1-(Benzofuran-2-yl)ethylidenehydrazono]-5-{[3-(4-methoxyphenyl)-1-phenyl-1H-pyrazol-4-yl]methylene}-3-phenylthiazolidin-4-one] |  | Negative | 1.65
4 | CC(=NN=C1SC(=Cc2cn(-c3ccccc3)nc2-c2ccccc2)C(=O)N1c1ccc(Cl)cc1)c1cc2ccccc2o1 [Compound 5d, 2-[1-(Benzofuran-2-yl)ethylidenehydrazono]-5-[(1,3-Diphenyl-1H-pyrazol-4-yl)methylene]-3-(4-chlorophenyl)thiazolidin-4-one] |  | Negative | 1.05
5 | CC(=NN=C1SC(=Cc2cn(-c3ccccc3)nc2-c2ccc(Cl)cc2)C(=O)N1c1ccc(Cl)cc1)c1cc2ccccc2o1 [Compound 5e, 2-[1-(Benzofuran-2-yl)ethylidenehydrazono]-5-{[3-(4-chlorophenyl)-1-phenyl-1H-pyrazol-4-yl]methylene}-3-(4-chlorophenyl)thiazolidin-4-one] |  | Negative | 3.82
6 | COc1ccc(-c2nn(-c3ccccc3)cc2C=C2SC(=NN=C(C)c3cc4ccccc4o3)N(c3ccc(Cl)cc3)C2=O)cc1 [Compound 5f, 2-[1-(Benzofuran-2-yl)ethylidenehydrazono]-5-{[3-(4-methoxyphenyl)-1-phenyl-1H-pyrazol-4-yl]methylene}-3-(4-chlorophenyl)thiazolidin-4-one] |  | Negative | 4.59
7 | COc1ccc(N2C(=O)C(=Cc3cn(-c4ccccc4)nc3-c3ccccc3)SC2=NN=C(C)c2cc3ccccc3o2)cc1 [Compound 5g, 2-[1-(Benzofuran-2-yl)ethylidenehydrazono]-5-[(1,3-Diphenyl-1H-pyrazol-4-yl)methylene]-3-(4-methoxyphenyl)thiazolidin-4-one] |  | Negative | 2.03
8 | COc1ccc(-c2nn(-c3ccccc3)cc2C=C2SC(=NN=C(C)c3cc4ccccc4o3)N(c3ccc(OC)cc3)C2=O)cc1 [Compound 5i, 2-[1-(Benzofuran-2-yl)ethylidenehydrazono]-5-{[3-(4-methoxyphenyl)-1-phenyl-1H-pyrazol-4-yl]methylene}-3-(4-methoxyphenyl)thiazolidin-4-one] |  | Negative | 2.97
9 | CC(=NN=C1SC(=Cc2cn(-c3ccccc3)nc2-c2ccccc2)C(=O)N1C1CCCCC1)c1cc2ccccc2o1 [Compound 5j, 2-[1-(Benzofuran-2-yl)ethylidenehydrazono]-5-[(1,3-Diphenyl-1H-pyrazol-4-yl)methylene]-3-cyclohexylthiazolidin-4-one] |  | Negative | 3.01
10 | CC(=NN=C1SC(=Cc2cn(-c3ccccc3)nc2-c2ccc(Cl)cc2)C(=O)N1C1CCCCC1)c1cc2ccccc2o1 [Compound 5k, 2-[1-(Benzofuran-2-yl)ethylidenehydrazono]-5-{[3-(4-chlorophenyl)-1-phenyl-1H-pyrazol-4-yl]methylene}-3-cyclohexylthiazolidin-4-one] |  | Negative | 4.44
11 | COc1ccc(-c2nn(-c3ccccc3)cc2C=C2SC(=NN=C(C)c3cc4ccccc4o3)N(C3CCCCC3)C2=O)cc1 [Compound 5l, 2-[1-(Benzofuran-2-yl)ethylidenehydrazono]-5-{[3-(4-methoxyphenyl)-1-phenyl-1H-pyrazol-4-yl]methylene}-3-cyclohexylthiazolidin-4-one] | showed in vitro anti-HCV activity; also recorded: exhibited in vitro anti-HCV activity | Positive | 2.89
12 | CC(=NN=C1SC(=Cc2cn(-c3ccccc3)nc2-c2ccccc2)C(=O)N1c1ccc(Cl)cc1)c1nc2ccccc2[nH]1 [Compound 5p, 2-[1-(1H-Benzimidazole-2-yl)ethylidenehydrazono]-5-[(1,3-Diphenyl-1H-pyrazol-4-yl)methylene]-3-(4-chlorophenyl)thiazolidin-4-one] | showed in vitro anti-HCV activity; also recorded: exhibited in vitro anti-HCV activity | Positive | 4.62
13 | CC(=NN=C1SC(=Cc2cn(-c3ccccc3)nc2-c2ccc(Cl)cc2)C(=O)N1c1ccc(Cl)cc1)c1nc2ccccc2[nH]1 [Compound 5q, 2-[1-(1H-Benzimidazole-2-yl)ethylidenehydrazono]-5-{[3-(4-chlorophenyl)-1-phenyl-1H-pyrazol-4-yl]methylene}-3-(4-chlorophenyl)thiazolidin-4-one] |  | Negative | 3.49
14 | COc1ccc(-c2nn(-c3ccccc3)cc2C=C2SC(=NN=C(C)c3nc4ccccc4[nH]3)N(c3ccc(Cl)cc3)C2=O)cc1 [Compound 5r, 2-[1-(1H-Benzimidazole-2-yl)ethylidenehydrazono]-5-{[3-(4-methoxyphenyl)-1-phenyl-1H-pyrazol-4-yl]methylene}-3-(4-chlorophenyl)thiazolidin-4-one] |  | Negative | 1.87

— PMC5729604, “Dual inhibitors of hepatitis C virus and hepatocellular carcinoma: design, synthesis and docking studies” (Future Science OA, 2017)
